Target: T1, androgen receptor (rat ventral prostate cytosol) (Rattus norvegicus, UniProt P15207)
T1 construct: from tissue; host or cells: ventral prostate of castrated male Sprague Dawley or Wistar rats, cytosol
T1 sequence (P15207 1-902): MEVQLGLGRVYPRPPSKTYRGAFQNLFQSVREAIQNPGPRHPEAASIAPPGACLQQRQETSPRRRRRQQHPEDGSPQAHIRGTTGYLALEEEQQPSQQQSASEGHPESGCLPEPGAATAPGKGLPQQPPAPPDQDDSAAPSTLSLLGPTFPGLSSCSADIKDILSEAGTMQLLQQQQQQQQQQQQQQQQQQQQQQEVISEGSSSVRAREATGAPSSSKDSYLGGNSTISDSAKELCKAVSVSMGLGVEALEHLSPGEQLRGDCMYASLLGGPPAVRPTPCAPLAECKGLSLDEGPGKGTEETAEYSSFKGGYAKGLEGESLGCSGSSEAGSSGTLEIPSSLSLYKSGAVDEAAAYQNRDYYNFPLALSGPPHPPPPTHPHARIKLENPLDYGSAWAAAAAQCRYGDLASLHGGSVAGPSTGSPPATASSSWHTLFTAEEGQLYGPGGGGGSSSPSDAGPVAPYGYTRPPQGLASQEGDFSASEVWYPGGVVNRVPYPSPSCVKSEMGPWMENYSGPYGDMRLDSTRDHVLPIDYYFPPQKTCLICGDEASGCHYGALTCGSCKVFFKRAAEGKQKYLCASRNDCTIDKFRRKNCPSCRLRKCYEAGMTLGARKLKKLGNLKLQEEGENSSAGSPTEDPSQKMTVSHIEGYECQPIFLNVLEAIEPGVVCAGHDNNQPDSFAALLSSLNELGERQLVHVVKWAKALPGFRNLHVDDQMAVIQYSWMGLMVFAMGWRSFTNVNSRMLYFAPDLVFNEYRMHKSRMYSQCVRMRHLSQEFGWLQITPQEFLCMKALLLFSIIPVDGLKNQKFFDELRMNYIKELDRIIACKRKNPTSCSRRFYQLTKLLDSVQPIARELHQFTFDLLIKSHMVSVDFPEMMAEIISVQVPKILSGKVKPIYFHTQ
Assay: Androgen Receptor Binding Using Rat Ventral Prostate Cytosol

[1] = rat cytosol, concentration 3000 nM

Row | Compound | % Inhibition [1] [%] | % Inhibition (3 µM) [%]
1 | CC(O)(C[S+]([O-])Cc1ccccc1)c1cc2cc([N+](=O)[O-])c(C(F)(F)F)cc2[nH]1 (mixture of isomers) [compound 161] | 39 | 
2 | CC(C)CSCC(C)(O)c1cc2cc([N+](=O)[O-])c(C(F)(F)F)cc2[nH]1 (racemic) [compound 170] | 80 | 
3 | COc1ccc(SCC(C)(O)c2cc3cc(Cl)c(C(F)(F)F)cc3n2S(C)(=O)=O)cc1 (racemic) [compound 130] | 32.55 | 
4 | CSCCC(C)(O)c1cc2cc([N+](=O)[O-])c(C(F)(F)F)cc2[nH]1 (racemic) [compound 47] |  | 81
5 | COc1ccc(S(=O)(=O)CC(C)(O)c2cc3cc(Cl)c(C(F)(F)F)cc3[nH]2)cc1 (racemic) [compound 129] | 39.5 | 
